Data as given in US8883782B2, “Spiro-tetracyclic ring compounds as beta-secretase modulators and methods of use” (Amgen Inc., priority 2010, dated 2014).
Like-named read-outs stand apart in the source and are kept apart here.

Columns and labels:
[1] = tested on: Aβ40 in conditioned medium of cells stably expressing Amyloid Precursor Protein (APP); assay: In vitro BACE cell-based assay (Aβ40 in conditioned medium, sandwich ELISA); conditions: read-out: HEK cell assay
Method in brief: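 Quantification relied on pAb40/6E10 sandwich ELISA with Europium fluorescence counts, and IC50 was fitted versus concentration.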

[2] = target: Beta Secretase enzyme (BACE) (Homo sapiens, UniProt P56817); assay: In vitro enzymatic BACE FRET (fluorescence resonance energy transfer) assay; format: biochemical; conditions: average IC50, enzyme assay; read-out: BACE 1 FRET assay
Method in brief: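 Acetate buffer (0.05 M, pH 4.2), 10% DMSO final, 100 uM nonionic detergent genapol. Substrate addition (50 nM FRET peptide) initiates; one-hour incubation; Tris raises pH to neutrality before fluorescence measurement.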

[3] = Homo sapiens, HEK293, average IC50
[4] = Homo sapiens, HEK293, average IC50, HEK cells

Beta Secretase enzyme (BACE), sequence (P56817 46-501, species assumed): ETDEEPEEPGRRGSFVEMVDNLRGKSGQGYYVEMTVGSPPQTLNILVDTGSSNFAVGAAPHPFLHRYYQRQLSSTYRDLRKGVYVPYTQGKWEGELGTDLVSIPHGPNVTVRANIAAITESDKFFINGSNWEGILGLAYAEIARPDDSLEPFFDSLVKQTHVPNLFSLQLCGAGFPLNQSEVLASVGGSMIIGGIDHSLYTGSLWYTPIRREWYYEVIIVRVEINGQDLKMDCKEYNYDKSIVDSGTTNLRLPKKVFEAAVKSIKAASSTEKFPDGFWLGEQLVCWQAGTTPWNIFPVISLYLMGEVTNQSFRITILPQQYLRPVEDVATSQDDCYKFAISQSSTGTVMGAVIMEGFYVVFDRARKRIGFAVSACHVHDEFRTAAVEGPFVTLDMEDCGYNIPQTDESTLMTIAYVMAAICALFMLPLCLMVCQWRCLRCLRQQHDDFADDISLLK

Molecule	IC50 [1, 3] [nM]	IC50 [2] [nM]	IC50 [1, 4] [nM]	IC50 [1] [nM]	IC50 ([1]; average IC50) [nM]
CC(C)(C#N)COc1cc(F)c2c(c1)[C@]1(CSC(N)=N1)c1cc(-c3cccnc3F)ccc1O2 [Example 800, 3-(((4S)-2-amino-4′-fluoro-7′-(2-fluoro-3-pyridinyl)spiro[1,3-thiazole-4,9′-xanthen]-2′-yl)oxy)-2,2-dimethylpropanenitrile]	20	0.4			
NC1=N[C@@]2(CO1)c1cc(-c3cccnc3F)ccc1Oc1c(F)cc(-c3cccnn3)cc12 [Example 201, (4S)-4′-fluoro-7′-(2-fluoro-3-pyridinyl)-2′-(3-pyridazinyl)spiro[1,3-oxazole-4,9′-xanthen]-2-amine]	7.6	1.8			
COCC1SC(N)=N[C@@]12c1cc(-c3cccnc3F)ccc1Oc1cnc(Cl)cc12 (stereo partly drawn) [Example 1088, (5R)-3-chloro-7-(2-fluoro-3-pyridinyl)-5′-(methoxymethyl)spiro[chromeno[2,3-c]pyridine-5,4′-[1,3]thiazol]-2′-amine, (5S)-3-chloro-7-(2-fluoro-3-pyridinyl)-5′-(methoxymethyl)spiro[chromeno[2,3-c]pyridine-5,4′-[1,3]thiazol]-2′-amine]		115		3060	
CC#Cc1cncc(-c2cc(F)c3c(c2)[C@]2(COC(N)=N2)c2cc(OC)ccc2O3)c1 [Example 776, (4S)-4′-fluoro-7′-methoxy-2′-(5-(1-propyn-1-yl)-3-pyridinyl)spiro[1,3-oxazole-4,9′-xanthen]-2-amine]	≥ 10000	2380			
NC1=N[C@@]2(CO1)c1cc(O)ccc1Oc1ncc(Br)cc12 [Example 689, (5S)-2′-amino-3-bromospiro[chromeno[2,3-b]pyridine-5,4′-[1,3]oxazol]-7-ol]		4070	10000		
COc1cc(F)c2c(c1)[C@]1(COC(N)=N1)c1cc(Br)c(F)cc1O2 [Example 523, (4S)-2′-bromo-3′,5′-difluoro-7′-methoxyspiro[1,3-oxazole-4,9′-xanthen]-2-amine]		884	1780		
NC1=N[C@@]2(CO1)c1cc(-c3cnccc3F)ccc1Oc1ncc(C3=CCOCC3)cc12 [Example 358, (5S)-3-(3,6-dihydro-2H-pyran-4-yl)-7-(4-fluoro-3-pyridinyl)spiro[chromeno[2,3-b]pyridine-5,4′-[1,3]oxazol]-2′-amine]	24.6	2.6			
CC#Cc1cncc(-c2ccc3c(c2)[C@@]2(COC(N)=N2)c2cc(-c4ccncc4)nc(OC)c2O3)c1 [Example 837, (5S)-1-methoxy-7-(5-(1-propyn-1-yl)-3-pyridinyl)-3-(4-pyridinyl)spiro[chromeno[2,3-c]pyridine-5,4′-[1,3]oxazol]-2′-amine]	9	0.7			
NC1=N[C@@]2(CO1)c1cc(-c3cccnc3F)ccc1Oc1c2cc(N2CC[C@@H](F)C2)nc1F [Example 673, (5S)-1-fluoro-7-(2-fluoro-3-pyridinyl)-3-((3R)-3-fluoro-1-pyrrolidinyl)spiro[chromeno[2,3-c]pyridine-5,4′-[1,3]oxazol]-2′-amine]		0.3	3		
NC1=N[C@@]2(CO1)c1cc(-c3cccnc3)ncc1Oc1c(F)cc(C3=CCOCC3)cc12 [Example 307, (5S)-7-(3,6-dihydro-2H-pyran-4-yl)-9-fluoro-3-(3-pyridinyl)spiro[chromeno[2,3-c]pyridine-5,4′-[1,3]oxazol]-2′-amine]	58.1	3.9			
CC1(C#Cc2cc3c(cc2F)Oc2ccc(-c4cccnc4F)cc2[C@@]32COC(N)=N2)COC1 [Example 312, (4S)-3′-fluoro-7′-(2-fluoro-3-pyridinyl)-2′-((3-methyl-3-oxetanyl)ethynyl)spiro[1,3-oxazole-4,9′-xanthen]-2-amine]	30.3	2.5			
(4R)-4′-fluoro-2′-methoxy-7′-(5-pyrimidinyl)spiro[1,3-thiazole-4,9′-xanthen]-2-amine [Example 215]		8.1			113
NC1=N[C@@]2(CO1)c1cc(-c3ccncc3F)ccc1Oc1cnc(-c3cccnc3F)cc12 [Example 574, (5S)-3-(2-fluoro-3-pyridinyl)-7-(3-fluoro-4-pyridinyl)spiro[chromeno[2,3-c]pyridine-5,4′-[1,3]oxazol]-2′-amine]		856	2230		
Cn1cc(-c2cc3c(cc2F)Oc2ccc(-c4cccnc4F)cc2[C@@]32COC(N)=N2)cn1 [Example 311, (4S)-3′-fluoro-7′-(2-fluoro-3-pyridinyl)-2′-(1-methyl-1H-pyrazol-4-yl)spiro[1,3-oxazole-4,9′-xanthen]-2-amine]	19.5	3.9			
C1=C(c2cnc3c(c2)[C@]2(COC(NCc4ccccc4)=N2)c2cc(OCc4ccccc4)ccc2O3)CCOC1 [Example 968, (5S)-N-benzyl-7-(benzyloxy)-3-(3,6-dihydro-2H-pyran-4-yl)spiro[chromeno[2,3-b]pyridine-5,4′-[1,3]oxazol]-2′-amine]		1260	≥ 10000		
NC1=N[C@@]2(CO1)c1cc(-c3cccnc3F)ccc1Oc1ncc(-c3cccnc3F)cc12 [Example 732, (5S)-3,7-bis(2-fluoro-3-pyridinyl)spiro[chromeno[2,3-b]pyridine-5,4′-[1,3]oxazol]-2′-amine]	3	2			
NC1=N[C@@]2(CS1)c1cc(-c3cccnc3F)ccc1Oc1c2cc(-c2ccncc2)nc1F [Example 1027, (5S)-1-fluoro-7-(2-fluoro-3-pyridinyl)-3-(4-pyridinyl)spiro[chromeno[2,3-c]pyridine-5,4′-[1,3]thiazol]-2′-amine]	14	0.4			
CC1(C#Cc2cnc3c(c2)[C@]2(CSC(N)=N2)c2cc(-c4ccc(F)nc4)ccc2O3)COC1 [Example 961, (5S)-7-(6-fluoro-3-pyridinyl)-3-((3-methyl-3-oxetanyl)ethynyl)spiro[chromeno[2,3-b]pyridine-5,4′-[1,3]thiazol]-2′-amine]		1	18		

Continued, in another order:

IC50 [1, 3] [nM]	IC50 [2] [nM]	IC50 [1, 4] [nM]	Molecule	IC50 [1] [nM]	IC50 ([1]; average IC50) [nM]
	1.4	11.1	CC1(C#Cc2cc3c(cn2)Oc2ccc(-c4cccnc4F)cc2[C@@]32COC(N)=N2)COC1 [Example 405, (5S)-7-(2-fluoro-3-pyridinyl)-3-((3-methyl-3-oxetanyl)ethynyl)spiro[chromeno[2,3-c]pyridine-5,4′-[1,3]oxazol]-2′-amine]		
17.7	1.8		NC1=N[C@@]2(CO1)c1cc(-c3cccc(Cl)c3)ccc1Oc1ncc(-c3cnccn3)cc12 [Example 166, (5S)-7-(3-chlorophenyl)-3-(2-pyrazinyl)spiro[chromeno[2,3-b]pyridine-5,4′-[1,3]oxazol]-2′-amine]		
1920	22.7		NC1=N[C@@]2(CO1)c1cc(Oc3cccc(Cl)n3)ccc1Oc1c(F)cc(C3=CCOCC3)cc12 [Example 725, (4S)-7′-((6-chloro-2-pyridinyl)oxy)-2′-(3,6-dihydro-2H-pyran-4-yl)-4′-fluorospiro[1,3-oxazole-4,9′-xanthen]-2-amine]		
	1.2	33	CC1(C#Cc2cc3c(cn2)Oc2ccc(-c4c(F)ccnc4F)cc2[C@@]32COC(N)=N2)COC1 [Example 957, (5S)-7-(2,4-difluoro-3-pyridinyl)-3-((3-methyl-3-oxetanyl)ethynyl)spiro[chromeno[2,3-c]pyridine-5,4′-[1,3]oxazol]-2′-amine]		
4.5	0.5		CC(C)(C#N)COc1cc(F)c2c(c1)[C@]1(COC(N)=N1)c1cc(-c3cncc(Cl)c3)ccc1O2 [Example 204, 3-(((4S)-2-amino-7′-(5-chloro-3-pyridinyl)-4′-fluorospiro[1,3-oxazole-4,9′-xanthen]-2′-yl)oxy)-2,2-dimethylpropanenitrile]		
	1	13	NC1=N[C@@]2(CS1)c1cc(-c3cccnc3)ccc1Oc1ncc(C3=CCCOC3)cc12 [Example 959, (5S)-3-(5,6-dihydro-2H-pyran-3-yl)-7-(3-pyridinyl)spiro[chromeno[2,3-b]pyridine-5,4′-[1,3]thiazol]-2′-amine]		
3.1	0.7		CC1(COc2cc(F)c3c(c2)[C@]2(COC(N)=N2)c2cc(-c4cncc(F)c4)ccc2O3)COC1 [Example 273, (4S)-4′-fluoro-7′-(5-fluoro-3-pyridinyl)-2′-((3-methyl-3-oxetanyl)methoxy)spiro[1,3-oxazole-4,9′-xanthen]-2-amine]		
10	0.1		NC1=N[C@@]2(CS1)c1cc(-c3cccnc3F)ccc1Oc1c(F)cc(C3=CCOCC3)cc12 [Example 791, (4S)-2′-(3,6-dihydro-2H-pyran-4-yl)-4′-fluoro-7′-(2-fluoro-3-pyridinyl)spiro[1,3-thiazole-4,9′-xanthen]-2-amine]		
	11.7	36.8	CNC(=O)c1ccc(F)c(-c2ccc3c(c2)[C@@]2(COC(N)=N2)c2cc(C4=CCOCC4)cnc2O3)c1 [Example 500, 3-((5S)-2′-amino-3-(3,6-dihydro-2H-pyran-4-yl)spiro[chromeno[2,3-b]pyridine-5,4′-[1,3]oxazol]-7-yl)-4-fluoro-N-methylbenzamide]		
	0.8	6	CC1(C#Cc2cnc3c(c2)[C@]2(COC(N)=N2)c2cc(-c4cncc(Cl)c4)c(F)cc2O3)COC1 [Example 626, (5S)-7-(5-chloro-3-pyridinyl)-8-fluoro-3-((3-methyl-3-oxetanyl)ethynyl)spiro[chromeno[2,3-b]pyridine-5,4′-[1,3]oxazol]-2′-amine]		
10.7	2		CC1(C)CC(c2cc3c(cn2)Oc2ccc(-c4cncc(F)c4)cc2[C@@]32COC(N)=N2)=CCO1 [Example 371, (5S)-3-(2,2-dimethyl-3,6-dihydro-2H-pyran-4-yl)-7-(5-fluoro-3-pyridinyl)spiro[chromeno[2,3-c]pyridine-5,4′-[1,3]oxazol]-2′-amine]		
